According to the NIST ThermoML archive (doi:10.1016/j.fluid.2016.11.012):
“And” between values parts separate entries of the source, which are not always exact repeats. Equal entries are not always repeated.

What was measured:
[1] = molar heat capacity at constant pressure; conditions: 100 kPa, DSC
[2] = Crystal; for vapor or sublimation pressure: Closed cell (Static) method
[3] = Molar enthalpy of transition or fusion; conditions: Crystal; DSC

c1ccc2c(c1)Cc1ccccc1-2 [fluorene]
[1], Crystal
Conditions | molar heat capacity at constant pressure
262.36 K | 171.44 J/K/mol
262.44 K | 171.61 J/K/mol
262.47 K | 171.61 J/K/mol
265 K | 173.52 J/K/mol and 173.36 J/K/mol
270 K | 176.77 J/K/mol and 176.68 J/K/mol
275 K | 180.01 J/K/mol and 179.93 J/K/mol and 180.09 J/K/mol
280 K | 183.33 J/K/mol and 183.25 J/K/mol
285 K | 186.49 J/K/mol and 186.41 J/K/mol and 186.33 J/K/mol
290 K | 189.65 J/K/mol and 189.49 J/K/mol and 189.4 J/K/mol
295 K | 192.9 J/K/mol and 192.81 J/K/mol and 192.73 J/K/mol
300 K | 196.47 J/K/mol and 196.31 J/K/mol
305 K | 201.38 J/K/mol and 201.21 J/K/mol
310 K | 208.11 J/K/mol and 208.2 J/K/mol and 207.95 J/K/mol
315 K | 216.18 J/K/mol and 216.34 J/K/mol and 216.09 J/K/mol
320 K | 223.33 J/K/mol and 223.66 J/K/mol and 223.41 J/K/mol
325 K | 227.9 J/K/mol and 228.32 J/K/mol
330 K | 231.81 J/K/mol and 232.39 J/K/mol and 232.31 J/K/mol
335 K | 236.96 J/K/mol and 237.3 J/K/mol and 237.21 J/K/mol
340 K | 242.04 J/K/mol and 241.87 J/K/mol
345 K | 246.77 J/K/mol and 246.61 J/K/mol
350 K | 251.85 J/K/mol and 251.76 J/K/mol and 251.68 J/K/mol
355 K | 257.25 J/K/mol and 257.17 J/K/mol and 257.08 J/K/mol
358.37 K | 261.08 J/K/mol
358.5 K | 261.32 J/K/mol and 261.24 J/K/mol

C1=Cc2cccc3cccc1c23 [acenaphthylene]
[1]
Conditions | molar heat capacity at constant pressure
304.12 K, Crystal | 185.5 J/K/mol and 185.08 J/K/mol and 185.83 J/K/mol
306.11 K, Crystal | 186.74 J/K/mol and 186.41 J/K/mol and 186.24 J/K/mol
308.11 K, Crystal | 188.24 J/K/mol and 187.99 J/K/mol and 188.07 J/K/mol
310.11 K, Crystal | 188.57 J/K/mol and 188.99 J/K/mol and 188.74 J/K/mol
312.11 K, Crystal | 189.4 J/K/mol and 189.49 J/K/mol
314.11 K, Crystal | 190.82 J/K/mol and 190.32 J/K/mol
316.11 K, Crystal | 191.23 J/K/mol and 191.73 J/K/mol and 192.23 J/K/mol
318.11 K, Crystal | 192.31 J/K/mol and 192.65 J/K/mol and 192.15 J/K/mol
320.11 K, Crystal | 193.81 J/K/mol and 193.73 J/K/mol and 193.56 J/K/mol
322.11 K, Crystal | 195.06 J/K/mol and 195.47 J/K/mol
324.11 K, Crystal | 196.55 J/K/mol and 196.06 J/K/mol and 196.14 J/K/mol
326.11 K, Crystal | 196.97 J/K/mol and 197.8 J/K/mol and 196.8 J/K/mol
328.12 K, Crystal | 198.13 J/K/mol and 198.22 J/K/mol and 198.55 J/K/mol
330.12 K, Crystal | 200.13 J/K/mol and 198.88 J/K/mol and 199.8 J/K/mol
332.13 K, Crystal | 201.21 J/K/mol and 200.88 J/K/mol and 201.38 J/K/mol
369.13 K, Liquid | 247.86 J/K/mol and 248.77 J/K/mol and 247.19 J/K/mol
371.13 K, Liquid | 249.1 J/K/mol and 248.1 J/K/mol
373.13 K, Liquid | 251.1 J/K/mol and 250.68 J/K/mol and 249.52 J/K/mol
375.13 K, Liquid | 250.68 J/K/mol and 249.02 J/K/mol and 253.51 J/K/mol
377.13 K, Liquid | 254.17 J/K/mol and 251.51 J/K/mol and 250.68 J/K/mol
379.13 K, Liquid | 253.59 J/K/mol and 250.93 J/K/mol and 251.35 J/K/mol
381.13 K, Liquid | 253.92 J/K/mol and 251.01 J/K/mol and 252.18 J/K/mol
383.13 K, Liquid | 254.76 J/K/mol and 252.59 J/K/mol and 252.51 J/K/mol
385.13 K, Liquid | 255.92 J/K/mol and 253.59 J/K/mol and 253.01 J/K/mol
387.13 K, Liquid | 255.01 J/K/mol and 253.51 J/K/mol and 252.93 J/K/mol

[2]
Conditions | Normal melting temperature [°C] | vapor or sublimation pressure
296.95 K | – | 0.00087 kPa
296.97 K | – | 0.00086 kPa
296.98 K | – | 0.00088 kPa
302.22 K | – | 0.00147 kPa
302.23 K | – | 0.00148 kPa and 0.00147 kPa
307.47 K | – | 0.00244 kPa
307.48 K | – | 0.00247 kPa
307.49 K | – | 0.00243 kPa
312.71 K | – | 0.00399 kPa
312.72 K | – | 0.00399 kPa and 0.00397 kPa
317.89 K | – | 0.00629 kPa and 0.00628 kPa and 0.00632 kPa
323.06 K | – | 0.00986 kPa
323.07 K | – | 0.00984 kPa and 0.00986 kPa
328.2 K | – | 0.01511 kPa
328.21 K | – | 0.01516 kPa
328.22 K | – | 0.01513 kPa
333.33 K | – | 0.02281 kPa
333.34 K | – | 0.02286 kPa and 0.02282 kPa
338.45 K | – | 0.03393 kPa and 0.03392 kPa
343.49 K | – | 0.04954 kPa
343.5 K | – | 0.04955 kPa and 0.0496 kPa
348.54 K | – | 0.07154 kPa and 0.07156 kPa
353.54 K | – | 0.1018 kPa
353.55 K | – | 0.1017 kPa and 0.1018 kPa
358.56 K | – | 0.1434 kPa and 0.1435 kPa
361.06 K | – | 0.1694 kPa
361.07 K | – | 0.1693 kPa and 0.1695 kPa
363.54 K | – | 0.1995 kPa
363.55 K | – | 0.1996 kPa and 0.1994 kPa
DTA | 92.00 | –

Conditions | Molar enthalpy of transition or fusion [kcal/mol]
[3] | 2.8
